A short description of the assay: diphenylpicrylhydrazyl (DPPH) radical scavenging assay. The following applies: read-out: antioxidant activity, IC50. The format is biochemical. A general note: Loss of DPPH colour is used to gauge radical scavenging.

As for `O=C1O[C@H]([C@@H](O)CO)C(O)=C1O` [vitamin C, Ascorbic acid], the IC50 came out at 58 µM.

Regarding `Cc1cc(C(C)(C)C)c(O)c(C(C)(C)C)c1` [butylatedhydroxytoluene], the IC50 was 2650 µM.

A word on the IC50: it is the midpoint of a concentration-inhibition curve.

The values above are taken from patent US11826396B2, “Nutriprotective diet” (FÉDÉRATION DES PRODUCTEURS ACÉRICOLES DU QUÉBEC, priority 2011, dated 2023).
